In patent US11370847B2, “Single domain antibodies directed against intracellular antigens” (Singh Biotechnology, LLC, priority 2014, dated 2022):
“And” between values parts separate entries of the source, which are not always exact repeats. Equal entries are not always repeated. Numbered stars: 1 amine (or outer) side, 2 acyl side, 3 side chain; on linkers, the order of the positions; unused ones are H or OH. Bridge positions count the residues as written; N and C are the ends. Square brackets hold non-standard residues; d marks the D form. Peptide text beside a SMILES is read from it. I, II: the chains in the order shown. Actinocin(9to1) = Cc1c2oc3c(C)ccc(C(=O)[*:1])c3nc-2c(C(=O)[*:2])c(N)c1=O; NMeV = CN[C@H](C(=O)O)C(C)C; Sar = CNCC(=O)O

How the values were obtained:
TNF-α = target: T1, TNF-α (Homo sapiens, UniProt P01375); assay: Inhibition of TNF-α cytotoxicity in L929 fibroblast cells (MTS); type: cell-based, mouse; settings: Assay 2, Actinomycin D only (no TNFα), sample replicates
T1 construct: purchased Sigma-Aldrich

SJSA-1 xenograft [1] = assay: SJSA-1 Bone Osteosarcoma subcutaneous xenograft model
SJSA-1 cells = assay: MTT proliferation assay, SJSA-1; type: cell-based, human
SJSA-1 xenograft [2] = settings: mouse, in vivo
[3] = SBT-100 5.0 mg/kg BID 14 days IP, Doxorubicin 7.0 mg/kg days 1, 8 and 14 IP
[4] = study day 9 post implant, IP, SBT-100 5.0 mg/kg BIDx14 and/or Doxorubicin 7.0 mg/kg days 1, 8, 14
[5] = study day 13 post implant, IP, SBT-100 5.0 mg/kg BIDx14 and/or Doxorubicin 7.0 mg/kg days 1, 8, 14
[6] = study day 16 post implant, IP, SBT-100 5.0 mg/kg BIDx14 and/or Doxorubicin 7.0 mg/kg days 1, 8, 14
[7] = study day 20 post implant, IP, SBT-100 5.0 mg/kg BIDx14 and/or Doxorubicin 7.0 mg/kg days 1, 8, 14
[8] = study day 21 post implant, IP, SBT-100 5.0 mg/kg BIDx14 and/or Doxorubicin 7.0 mg/kg days 1, 8, 14
[9] = study day 23 post implant, IP, SBT-100 5.0 mg/kg BIDx14 and/or Doxorubicin 7.0 mg/kg days 1, 8, 14
[10] = study day 27 post implant, IP, SBT-100 5.0 mg/kg BIDx14 and/or Doxorubicin 7.0 mg/kg days 1, 8, 14

T1 sequence (P01375 77-233 limits assumed): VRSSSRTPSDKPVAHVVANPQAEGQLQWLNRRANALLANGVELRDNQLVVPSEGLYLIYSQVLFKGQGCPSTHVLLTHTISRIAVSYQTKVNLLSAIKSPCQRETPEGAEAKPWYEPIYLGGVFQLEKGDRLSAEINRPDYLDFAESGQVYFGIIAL

`Cc1c2oc3c(C)ccc(C(=O)N[C@@H]4C(=O)N[C@H](C(C)C)C(=O)N5CCC[C@H]5C(=O)N(C)CC(=O)N(C)[C@@H](C(C)C)C(=O)O[C@@H]4C)c3nc-2c(C(=O)N[C@@H]2C(=O)N[C@H](C(C)C)C(=O)N3CCC[C@H]3C(=O)N(C)CC(=O)N(C)[C@@H](C(C)C)C(=O)O[C@@H]2C)c(N)c1=O` [Actinomycin D] (I: T[dV]P[Sar][NMeV] / II: T[dV]P[Sar][NMeV]; ester I:1-I:C, II:1-II:C; linker I:N-II:N via Actinocin(9to1)) was tested, and the “% Toxicity” value (TNF-α) was 0%.
For `COc1cccc2c1C(=O)c1c(O)c3c(c(O)c1C2=O)C[C@@](O)(C(=O)CO)C[C@@H]3O[C@H]1C[C@H](N)[C@H](O)[C@H](C)O1` [Doxorubicin, reference compound], the “% T/C” value (SJSA-1 xenograft [1]; [3]) was 17.91%, the “mean tumor growth inhibition at the end of the study” value (SJSA-1 xenograft [1]; [3]) was 84.71% and the “mean tumor size (±S.E.) at termination” value (SJSA-1 xenograft [1]; [3]) was 215.84±52.32. For the same compound, the “mean tumor size (±SE) at the last day of dosing” value (SJSA-1 xenograft [1]; [3]) was 118.18±11.13, the tumor doubling time (SJSA-1 xenograft [1]; control 8.22) was 13.32 and the “% Inh Mean” value (SJSA-1 xenograft [1]; [4]) was 58.36%. The “% Inh Med” value (SJSA-1 xenograft [1]; [4]) was 32.94%, the “Mean Abs (tumor measurement)” value (SJSA-1 xenograft [1]; [4]) was 16.52 mm^3 and the “Tumor Measurements, single animals” value (SJSA-1 xenograft [1]; [4]) was 23.19 mm^3 and 14.32 mm^3 and 16.69 mm^3 and 0.00 mm^3 (2×) and 46.20 mm^3. The “% Inh Mean” value (SJSA-1 xenograft [1]; [5]) was 3.16%, the “% Inh Med” value (SJSA-1 xenograft [1]; [5]) was −23.18% and the “% T/C” value (SJSA-1 xenograft [1]; [5]) was 107.14%. For the same compound, the “Mean Abs (tumor measurement)” value (SJSA-1 xenograft [1]; [5]) was 76.72 mm^3, the “Median Abs (tumor measurement)” value (SJSA-1 xenograft [1]; [5]) was 72.93 mm^3 and the “Tumor Measurements, single animals” value (SJSA-1 xenograft [1]; [5]) was 48.43 mm^3 and 20.77 mm^3 and 132.27 mm^3 and 104.16 mm^3 and 25.81 mm^3 and 132.66 mm^3 and 72.93 mm^3. For the same compound, the “% Inh Mean” value (SJSA-1 xenograft [1]; [6]) was 55.02%, the “% Inh Med” value (SJSA-1 xenograft [1]; [6]) was 55.11% and the “% T/C” value (SJSA-1 xenograft [1]; [6]) was 51.96%. For the same compound, the “Mean Abs (tumor measurement)” value (SJSA-1 xenograft [1]; [6]) was 78.09 mm^3, the “Median Abs (tumor measurement)” value (SJSA-1 xenograft [1]; [6]) was 73.50 mm^3 and the “Tumor Measurements, single animals” value (SJSA-1 xenograft [1]; [6]) was 102.31 mm^3 and 37.33 mm^3 and 105.65 mm^3 and 118.75 mm^3 and 57.55 mm^3 and 51.55 mm^3 and 73.50 mm^3. For the same compound, the “% Inh Mean” value (SJSA-1 xenograft [1]; [7]) was 74.31%, the “% Inh Med” value (SJSA-1 xenograft [1]; [7]) was 71.58% and the “% T/C” value (SJSA-1 xenograft [1]; [7]) was 30.35%. For the same compound, the “Mean Abs (tumor measurement)” value (SJSA-1 xenograft [1]; [7]) was 79.33 mm^3, the “Median Abs (tumor measurement)” value (SJSA-1 xenograft [1]; [7]) was 72.16 mm^3 and the “Tumor Measurements, single animals” value (SJSA-1 xenograft [1]; [7]) was 61.44 mm^3 and 68.71 mm^3 and 114.42 mm^3 and 93.72 mm^3 and 75.00 mm^3 and 69.85 mm^3 and 72.16 mm^3. The “% Inh Mean” value (SJSA-1 xenograft [1]; [8]) was 70.41%, the “% Inh Med” value (SJSA-1 xenograft [1]; [8]) was 61.77% and the “% T/C” value (SJSA-1 xenograft [1]; [8]) was 36.16%. The “Mean Abs (tumor measurement)” value (SJSA-1 xenograft [1]; [8]) was 118.18 mm^3, the “Tumor Measurements, single animals” value (SJSA-1 xenograft [1]; [8]) was 85.16 mm^3 and 115.50 mm^3 and 133.21 mm^3 and 119.94 mm^3 and 160.89 mm^3 and 94.40 mm^3 and the “% Inh Mean” value (SJSA-1 xenograft [1]; [9]) was 72.79%. For the same compound, the “% Inh Med” value (SJSA-1 xenograft [1]; [9]) was 71.86%, the “% T/C” value (SJSA-1 xenograft [1]; [9]) was 30.43% and the “Mean Abs (tumor measurement)” value (SJSA-1 xenograft [1]; [9]) was 141.94 mm^3. The “Median Abs (tumor measurement)” value (SJSA-1 xenograft [1]; [9]) was 129.81 mm^3, the “Tumor Measurements, single animals” value (SJSA-1 xenograft [1]; [9]) was 105.84 mm^3 and 142.33 mm^3 and 217.29 mm^3 and 151.94 mm^3 and 116.95 mm^3 and 117.30 mm^3 and the “% Inh Mean” value (SJSA-1 xenograft [1]; [10]) was 84.71%. For the same compound, the “% Inh Med” value (SJSA-1 xenograft [1]; [10]) was 81.05%, the “% T/C” value (SJSA-1 xenograft [1]; [10]) was 17.91% and the “Mean Abs (tumor measurement)” value (SJSA-1 xenograft [1]; [10]) was 215.84 mm^3. The “Median Abs (tumor measurement)” value (SJSA-1 xenograft [1]; [10]) was 215.84 mm^3, the “Tumor Measurements, single animals” value (SJSA-1 xenograft [1]; [10]) was 163.53 mm^3 and 268.16 mm^3 and the “inhibition of SJSA-1 cells” value (SJSA-1 cells; 72 hours, SBT-100 at 50 and 100 μg/ml, Doxorubicin at all dose levels tested) was “significant dose-dependent inhibition”. It also gave an inhibition at 0.0313 µM (SJSA-1 cells; Homo sapiens, SJSA-1, 72 h) of 28%, an inhibition at 0.0625 µM (SJSA-1 cells; Homo sapiens, SJSA-1, 72 h) of 29% and an inhibition at 0.313 µM (SJSA-1 cells; Homo sapiens, SJSA-1, 72 h) of 31%. The inhibition at 0.5 µM (SJSA-1 cells; Homo sapiens, SJSA-1, 72 h) was 36%, the inhibition at 0.625 µM (SJSA-1 cells; Homo sapiens, SJSA-1, 72 h) was 29% and the inhibition at 1 µM (SJSA-1 cells; Homo sapiens, SJSA-1, 72 h) was 49%. The inhibition at 5 µM (SJSA-1 cells; Homo sapiens, SJSA-1, 72 h) was 52%, the inhibition at 10 µM (SJSA-1 cells; Homo sapiens, SJSA-1, 72 h) was 45% and the “Mean Abs (±SD)” value (SJSA-1 cells; Table 72 (experiment 5a), Doxorubicin 0.0313 μM alone, 72 hours) was 0.281 ± 0.031. For the same compound, the “Mean Abs (±SD)” value (SJSA-1 cells; Table 72 (experiment 5a), Doxorubicin 0.0625 μM alone, 72 hours) was 0.277 ± 0.035, the “Mean Abs (±SD)” value (SJSA-1 cells; Table 72 (experiment 5a), Doxorubicin 0.5 μM alone, 72 hours) was 0.248 ± 0.038 and the “Mean Abs (±SD)” value (SJSA-1 cells; Table 72 (experiment 5a), Doxorubicin 1 μM alone, 72 hours) was 0.197 ± 0.012. The “Mean Abs (±SD)” value (SJSA-1 cells; Table 73 (Experiment 2, 5b), Doxorubicin 0.313 μM alone, 72 hours) was 0.519 ± 0.004, the “Mean Abs (±SD)” value (SJSA-1 cells; Table 73 (Experiment 2, 5b), Doxorubicin 0.625 μM alone, 72 hours) was 0.530 ± 0.024 and the “Mean Abs (±SD)” value (SJSA-1 cells; Table 73 (Experiment 2, 5b), Doxorubicin 5.00 μM alone, 72 hours) was 0.358 ± 0.003. For the same compound, the “Mean Abs (±SD)” value (SJSA-1 cells; Table 73 (Experiment 2, 5b), Doxorubicin 10.0 μM alone, 72 hours) was 0.414 ± 0.007, the “number surviving at the end of the study” value (SJSA-1 xenograft [2]; Hsd: Athymic Nude-Fox1nu, 14 days) was 2 and the “Are the survival curves sig different?” value (SJSA-1 xenograft [2]) was “Yes”.
